Source: article PMC3561128, “Preclinical evaluation of carbon-11 and fluorine-18 sulfonamide derivatives for in vivo radiolabeling of erythrocytes” (EJNMMI Research, 2013)
Values joined by “and” are separate entries in the source; they are usually repeats but may differ in a detail not shown here. Equal entries are not always repeated. Where two headings read alike, the source gives them in different places.

Tests used:
hCA I = hCA I (Homo sapiens, UniProt P00915); assay: CA-catalyzed CO2 hydration, stopped-flow inhibition assay; type: biochemical; settings: human (cloned) isozyme; CO2 hydration reaction at 20°C; n = 3
Procedure: (§1) Phenol red (0.2 mM) was used as indicator, working at the absorbance maximum of 557 nm, with 10 mM Hepes as buffer (pH 7.5) and 0.1 M Na2SO4 (for maintaining constant ionic strength) at 25°C following the CA-catalyzed CO2 hydration reaction for a period of 10 to 100 s (the uncatalyzed reaction needs around 60 to 100 s under assay conditions, whereas the catalyzed reactions take around 6 to 10 s). The CO2 concentrations ranged from 1.7 to 17 mM for the determination of kinetic parameters. Each compound was tested in the concentration range between 0.01 nM to 100 μM. The uncatalyzed rates were determined in the same manner and subtracted from the total observed rates. Stock solutions of the compounds (0.1 mM) were prepared in distilled water with 10% to 20% (v/v) DMSO (which is non-inhibitory at these concentrations), and dilutions up to 0.01 nM were made with distilled water. Inhibitor and enzyme solutions were preincubated together for 15 min at room temperature prior to the assay, in order to allow the formation of enzyme-inhibitor complex. The inhibition constants were obtained by nonlinear least square methods using PRISM 3 (GraphPad Software, La Jolla, CA, USA), and they represent the mean from at least three different determinations.

hCA II = hCA II (Homo sapiens, UniProt P00918); assay: as above; type: biochemical; settings: human (cloned) isozyme; CO2 hydration reaction at 20°C; n = 3
Procedure: as §1

[1] = Log D (1-octanol/phosphate buffer pH 7.4), shake flask method; type: physicochemical
Procedure: Determination of the distribution coefficient (log D1-octanol/phosphate buffer pH 7.4), was carried out by a shake flask method. An aliquot (25 μL) of the tracer agents ^18F]-(3), ^11C]-(4), ^18F]-(5), or ^11C]-(6) (185 to 555 kBq/mL) was added to a polypropylene tube (5 mL; Sarstedt, Nümbrecht, Germany) containing 2 mL of 0.025 M sodium phosphate buffer pH 7.4 and 2 mL of 1-octanol. The tube was vortexed for 2 min at room temperature followed by centrifugation at 3,000 rpm for 10 min (Eppendorf centrifuge 5810, Eppendorf, Westbury, NY, USA). Aliquots of 50 μL of the 1-octanol phase and 500 μL of the phosphate buffer phase were pipetted into separate tared Eppendorf tubes with adequate care to avoid cross contamination between the two phases. The samples were weighed, and radioactivity was quantified using an automated gamma counter. The experiments were carried out sixfold.

[2] = Biodistribution studies in NMRI mice; type: in vivo; settings: i.v.; for Percentage of ID, blood: blood mass assumed 7% of body mass
Procedure: The biodistribution studies were performed in wild-type NMRI mice with body weights ranging from 30 to 40 g. Mice were intravenously injected with 0.1 MBq of ^18F]-(3) or ^18F]-(5) and 5.5 MBq of ^11C]-(4) or ^11C]-(6) under anesthesia (2% isoflurane in O2 at a flow rate of 1 L/min). The animals were killed by decapitation at 2 min or 60 min p.i. (n = 4/time point for ^18F]-(3), ^11C]-(4), and ^11C]-(6); n = 6 for ^18F]-(5)). Blood was collected, and all major organs were dissected and collected in tarred tubes and were weighed. The radioactivity in each organ was counted using an automated gamma counter, corrected for background radioactivity and expressed as follows: percentage of the injected dose (% ID) or as standardized uptake value (SUV) (SUV = (Counts in tissue per gram of tissue) / (Injected counts per total body mass (g)). For the calculation of total radioactivity in the blood, blood mass was assumed to be 7% of the body mass.

RBCs [3] = test system: RBCs; parameters: method as in PMID 1647382, PMID 1647383; settings: human volunteers, 24 h p.i.; cited from earlier work
RBCs [4] = test system: RBCs; parameters: method as in PMID 1647382, PMID 1647383; settings: rats, 24 h p.i.; cited from earlier work

Sequence of hCA I (P00915 whole entry): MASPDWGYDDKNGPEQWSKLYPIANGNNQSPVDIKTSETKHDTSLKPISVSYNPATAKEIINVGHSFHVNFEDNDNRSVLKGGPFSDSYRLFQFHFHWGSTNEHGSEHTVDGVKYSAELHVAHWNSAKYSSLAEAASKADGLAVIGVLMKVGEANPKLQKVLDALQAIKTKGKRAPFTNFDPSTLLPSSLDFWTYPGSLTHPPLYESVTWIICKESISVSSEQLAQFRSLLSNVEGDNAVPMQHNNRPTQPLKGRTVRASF

NS(=O)(=O)c1ccc(CCNC(=O)c2ccc(OCCF)cc2)cc1 [(3)]
Ki (hCA I): 0.096 µM | Ki (hCA II): 8 nM | logD [1]: 1.13

COc1ccc(C(=O)NCCc2ccc(S(N)(=O)=O)cc2)cc1 [(4)]
Ki (hCA I): 0.39 µM | Ki (hCA II): 20 nM | logD [1]: 1.19

NS(=O)(=O)c1ccc(OCCF)cc1 [(5)]
Ki (hCA I): 30.9 µM | Ki (hCA II): 336 nM | logD [1]: 0.32

COc1ccc(S(N)(=O)=O)cc1 [(6)]
Ki (hCA I): 24.7 µM | Ki (hCA II): 422 nM | logD [1]: 0.42

NS(=O)(=O)c1ccc(CCNC(=O)c2ccc(OCC[18F])cc2)cc1 [[^18F]-(3), 4-(2-[^18F]fluoroethoxy)benzoyl aminoethylbenzenesulfonamide]
Percentage of ID, brain ([2]; 2 min p.i.): 0.2 ± 0.0 % ID | Percentage of ID, carcass ([2]; 2 min p.i.): 18.10 ± 2.32 % ID | Percentage of ID, heart ([2]; 2 min p.i.): 0.8 ± 0.0 % ID | Percentage of ID, intestines ([2]; 2 min p.i.): 5.9 ± 0.8 % ID | Percentage of ID, kidneys ([2]; 2 min p.i.): 10.6 ± 0.8 % ID | Percentage of ID, liver ([2]; 2 min p.i.): 15.8 ± 1.5 % ID | Percentage of ID, lungs ([2]; 2 min p.i.): 2.3 ± 0.5 % ID | Percentage of ID, spleen + pancreas ([2]; 2 min p.i.): 1.3 ± 0.2 % ID | Percentage of ID, stomach ([2]; 2 min p.i.): 0.7 ± 0.1 % ID | Percentage of ID, urine ([2]; 2 min p.i.): 0.2 ± 0.1 % ID | SUV, blood ([2]; 2 min p.i.): 10.1 ± 0.6 | SUV, brain ([2]; 2 min p.i.): 0.2 ± 0.0 | SUV, heart ([2]; 2 min p.i.): 2.3 ± 1.3 | SUV, kidneys ([2]; 2 min p.i.): 5.6 ± 0.6 | SUV, liver ([2]; 2 min p.i.): 3.2 ± 0.2 | SUV, lungs ([2]; 2 min p.i.): 3.5 ± 1.0 | SUV, spleen ([2]; 2 min p.i.): 1.6 ± 0.2 | Percentage of ID, blood ([2]; 2 min p.i.): 71.0 ± 4.3 % ID | Percentage of ID, brain ([2]; 60 min p.i.): 0.2 ± 0.1 % ID | Percentage of ID, carcass ([2]; 60 min p.i.): 31.35 ± 3.67 % ID | Percentage of ID, heart ([2]; 60 min p.i.): 0.2 ± 0.2 % ID | Percentage of ID, intestines ([2]; 60 min p.i.): 18.6 ± 1.0 % ID | Percentage of ID, kidneys ([2]; 60 min p.i.): 2.8 ± 0.1 % ID | Percentage of ID, liver ([2]; 60 min p.i.): 8.3 ± 1.2 % ID | Percentage of ID, lungs ([2]; 60 min p.i.): 0.7 ± 0.3 % ID | Percentage of ID, spleen + pancreas ([2]; 60 min p.i.): 0.9 ± 0.3 % ID | Percentage of ID, stomach ([2]; 60 min p.i.): 1.9 ± 1.3 % ID | SUV, blood ([2]; 60 min p.i.): 4.5 ± 0.3 | SUV, brain ([2]; 60 min p.i.): 0.1 ± 0.0 | SUV, heart ([2]; 60 min p.i.): 0.5 ± 0.4 | SUV, kidneys ([2]; 60 min p.i.): 1.6 ± 0.1 | SUV, liver ([2]; 60 min p.i.): 1.7 ± 0.3 | SUV, lungs ([2]; 60 min p.i.): 1.1 ± 0.4 | SUV, spleen ([2]; 60 min p.i.): 1.1 ± 0.3 | Percentage of ID, blood ([2]; 60 min p.i.): 32 % ID and 31.7 ± 2.1 % ID | Ki (hCA II): 8 nM

NS(=O)(=O)c1ccc(I)cc1 [p-iodobenzenesulfonamide]
Activity associated with RBCs (RBCs [3]): more than 88 % of the ID | Activity associated with RBCs (RBCs [4]): about 50 % of the injected dose
